Consider 28 compounds from patent US7205300B2, “Aryl fused azapolycyclic compounds” (Pfizer Inc, priority 1997, dated 2007).

Each structure is given as a SMILES string.

Take `Cc1nc2cc3c(cc2s1)C1CNCC3C1.Cl` (stereo not shown): the melting point – broadly, the temperature of the solid-liquid transition – was in the range of 183 to 184 °C.
In the case of `Cl.c1nc2cc3c(cc2[nH]1)C1CNCC3C1` (stereo not shown), the melting point is above 250 °C.
Next, `Cc1nc2cc3c(cc2n1C)C1CNCC3C1.Cl` (stereo not shown): 225 to 230 °C; `CC(C)Cn1cnc2cc3c(cc21)C1CNCC3C1.Cl` (stereo not shown): 147 to 150 °C.
In turn, `Cl.Fc1ccc2c(c1)C1CNCC2C1` (stereo not shown) had a melting point of 260 to 262 °C.
The figure for `Cc1nc2cc3c(cc2n1CC(C)C)C1CNCC3C1.Cl` (stereo not shown) is 129 to 130 °C; for `Cl.c1ccc(-n2cnc3cc4c(cc32)C2CNCC4C2)cc1` (stereo not shown) it is 210 to 213 °C.
The figure for `Cc1nc2cc3c(cc2n1-c1ccccc1)C1CNCC3C1.Cl` (stereo not shown) is above 250 °C; for `CN1CC2CC(C1)c1cc3nccnc3cc12.Cl` it is above 250 °C; for `Cc1nc2cc3c(cc2o1)C1CNCC3C1.Cl` (stereo not shown) it is above 250 °C.
Next, `Cc1ccc2c(c1)C1CNCC2C1.Cl` (stereo not shown): 254 to 255 °C; `Cl.O=C(Nc1cc2c(cc1O)C1CNCC2C1)c1ccccc1F` (stereo not shown): 125 to 130 °C.
In turn, `Cl.N#Cc1ccc2c(c1)C1CNCC2C1` (stereo not shown) registered a melting point of 268 to 273 °C.
The figure for `CC(=O)c1ccc2c(c1)C1CNCC2C1.Cl` (stereo not shown) is 198 to 202 °C; for `Cl.Clc1cc2c(cc1Cl)C1CNCC2C1` it is 283 to 291 °C.
The figure for `Cl.c1ccc(-c2cccc3c2C2CNCC3C2)cc1` (stereo not shown) is 262 to 265 °C; for `Cl.Oc1cccc2c1C1CNCC2C1` (stereo not shown) it is 253 to 255 °C.
The figure for `Cl.Fc1cc2c(cc1F)C1CNCC2C1` is 301 to 303 °C.
Compound `CC(C)c1nc2cc3c(cc2o1)C1CNCC3C1.Cl` (stereo not shown) had a melting point of 249 to 251 °C.
The figure for `Cl.c1cnc2cc3c(cc2c1)C1CNCC3C1` (stereo not shown) is 260 °C (dec.); for `Cl.FC(F)(F)c1cccc2c1C1CNCC2C1` (stereo not shown) it is 275 to 277 °C; for `Cc1ccc2cc3c(cc2n1)C1CNCC3C1.Cl` (stereo not shown) it is > 300 °C (dec.).
Turning to `CCc1cnc2cc3c(cc2c1)C1CNCC3C1.Cl` (stereo not shown), the melting point was 288 to 291 °C (dec.).
Next, `Cl.O=c1ccc2cc3c(cc2[nH]1)C1CNCC3C1` (stereo not shown): 300 °C (dec.).
The figure for `Cl.Fc1cccc2c1C1CNCC2C1` (stereo not shown) is 269 to 271 °C; for `Cl.O=[N+]([O-])c1ccc2c(c1)C1CNCC2C1` (stereo not shown) it is 265 to 270 °C.
The figure for `Cl.Nc1ccc2c(c1)C1CNCC2C1` (stereo not shown) is 189 to 192 °C; for `CC(=O)Nc1ccc2c(c1)C1CNCC2C1.Cl` (stereo not shown) it is 225 to 230 °C.
